From patent US20250177555A1 (priority 2022, published 2025)

Key:
[1] = test system: CNV-G pseudotyped lentiviral infection; format: cell-based
[2] = test system: CNV-G gectosome cell entry; format: cell-based, human; details: read-out: IC50, CNV-G gectosome inhibition
[3] = test system: VSV-G gectosome uptake, 293ColorSwitch cells; format: cell-based; details: Cre cargo
[4] = test system: CNV-G gectosome uptake, 293ColorSwitch cells; format: cell-based
[5] = molecular target: BlaM-Vpr-GFP1-10; assay: cell-based or functional assay

**Q.** Which results are given for `C/C1=C/C(=O)O[C@@H]2C[C@@H](CC[C@H](C)/C=C\CC1)O[C@@](O)([C@@H]1CSC(=O)N1)C2` [Latrunculin B]?
**A.** effect on CNV-G pseudotyped lentiviral infection [1]: effect of Latrunculin B on CNV-G; IC50 [2]: 1960 nM

**Q.** With `CCCCCCCCCCCCCCCCOP(=O)([O-])OCC[N+](C)(C)C` [Milterfosine] as the compound, how does the “inhibition of VSV-G gectosome uptake” value [3] read?
**A.** NOT VSV-G gectosome uptake

**Q.** What about the “inhibition of CNV-G gectosome uptake” value [4] of the same compound?
**A.** specifically inhibit

**Q.** `COc1ccc2c(c1)CC[C@@H]1[C@@H]2CC[C@]2(C)[C@@H](NCCCCCCN3C(=O)C=CC3=O)CC[C@@H]12` [U-73122] was tested. Which IC50 [2] did it give?
**A.** 3030 nM

**Q.** For CNV-G-EGFP (from UniProt P13180 23-530), which efficiency of cargo transfer against the CNV-G-GFP11 and BlaM-GFP1-10 pair [5] is on record?
**A.** 100 fold less
